This passage reports IC50 results from BindingDB's records for doi:10.1016/j.bioorg.2014.02.001 (University of Delhi, 2014).

Structures are written as SMILES.

Mitogen-activated protein kinase 1, sequence (P28482 whole entry): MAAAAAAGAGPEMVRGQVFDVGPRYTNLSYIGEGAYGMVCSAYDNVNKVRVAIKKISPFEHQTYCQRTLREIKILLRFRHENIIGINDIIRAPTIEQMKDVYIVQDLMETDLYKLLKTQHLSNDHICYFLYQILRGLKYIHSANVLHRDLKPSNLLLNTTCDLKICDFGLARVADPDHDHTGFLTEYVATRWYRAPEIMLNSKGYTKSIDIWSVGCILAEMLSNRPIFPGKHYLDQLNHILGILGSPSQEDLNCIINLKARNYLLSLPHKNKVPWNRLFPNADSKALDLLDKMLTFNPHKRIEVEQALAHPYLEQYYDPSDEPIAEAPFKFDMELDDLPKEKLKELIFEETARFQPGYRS

The target of one assay is Proto-oncogene tyrosine-protein kinase Src (c-Src). Description: The kinase reaction was initiated with the incubation of the 2.5 µL of the reaction cocktail (0.7 nM of His6-Src kinase domain in kinase buffer) with 2.5 µL of prediluted compounds (dissolved in 10% DMSO, 4X target concentration) for 10 min at room temperature. The reaction cocktail contained 200 mM HEPES (pH 7.5), 16 mM MgC.
Settings: not given
In general, IC50 refers to the concentration needed to halve the response being measured. The low end stands for greater potency in that assay, the high end for weaker potency in that assay. In the case of `COc1ccc(C(=O)c2ccc(=O)n(C(C)C)c2)c(O)c1` [5-(2-Hydroxy-4-methoxybenzoyl)-1-isopropylpyridin-2(1H)-one (35)], the midpoint of inhibition, the IC50, lay at 47 µM. Consider `CN(C)CCn1cc(C(=O)c2ccccc2O)ccc1=O` [1-[2-(Dimethylamino)ethyl]-5-(2-hydroxybenzoyl)pyridin-2(1H)-one (31)], for which it took 28.2 µM to reach half-maximal inhibition (IC50).

As to `COc1ccc(C(=O)c2ccc(=O)n(CCN(C)C)c2)c(O)c1` [1-[2-(Dimethylamino)ethyl]-5-(2-hydroxy-4-methoxybenzoyl) pyridin-2(1H)-one (36)], the IC50 turned out to be 12.5 µM. In the case of `CCCCCCn1cc(C(=O)c2cc(O)ccc2O)ccc1=O` [5-(2,5-Dihydroxybenzoyl)-1-hexylpyridin-2(1H)-one (39)], the midpoint of inhibition, the IC50, lay at 22.1 µM.

For `CC(C)n1cc(C(=O)c2cc(O)ccc2O)ccc1=O` [5-(2,5-Dihydroxybenzoyl)-1-isopropylpyridin-2(1H)-one (40)], the midpoint of inhibition, the IC50, lay at 26.1 µM. Compound `CCCCCCn1cc(C(=O)c2ccccc2O)ccc1=O` [1-Hexyl-5-(2-hydroxybenzoyl)pyridin-2(1H)-one (28)] showed an IC50 of 28.1 µM. As to `CC(C)n1cc(C(=O)c2ccccc2O)ccc1=O` [5-(2-Hydroxybenzoyl)-1-isopropylpyridin-2(1H)-one (29)], half-maximal inhibition (IC50) required 21.8 µM. As for `O=C(c1ccc(=O)n(C2CCCCC2)c1)c1ccccc1O` [1-Cyclohexyl-5-(2-hydroxybenzoyl)pyridin-2(1H)-one (30)], half-maximal inhibition (IC50) required 25.4 µM. On to `O=c1ccc(/C(=N\C2CCCCC2)c2ccccc2O)cn1C1CCCCC1` [(E)-1-Cyclohexyl-5-[(cyclohexylimino)(2-hydroxyphenyl)methyl]pyridin-2(1H)-one (45)], for which half-maximal inhibition (IC50) was put at 20.1 µM.

Turning to `CCCCCCn1cc(C(=O)c2ccc(OC)cc2O)ccc1=O` [1-Hexyl-5-(2-hydroxy-4-methoxybenzoyl)pyridin-2(1H)-one (34)], 34.1 µM corresponded to half-maximal inhibition (IC50). In the case of `CCCCCCn1cc(C(=O)c2cc(OC)ccc2O)ccc1=O` [1-Hexyl-5-(2-hydroxy-5-methoxybenzoyl)pyridin-2(1H)-one (41)], the IC50 came out at 23.5 µM.

Compound `COc1ccc(C(=O)c2ccc(=O)n(CCO)c2)c(O)c1` [5-(2-Hydroxy-4-methoxybenzoyl)-1-(2-hydroxyethyl)pyridin-2(1H)-one (38)] registered an IC50 of 19.9 µM.

In turn, `COc1ccc(C(=O)c2ccc(=O)n(CCNC(=O)OC(C)(C)C)c2)c(O)c1` [t-Butyl [2-{5-(2-hydroxy-4-methoxybenzoyl)-2-oxopyridin-1(2H)-yl}ethyl]carbamate (37)] returned an IC50 of 27.6 µM. For the compound `COc1ccc(O)c(C(=O)c2ccc(=O)n(CCNC(=O)OC(C)(C)C)c2)c1` [t-Butyl [2-{5-(2-hydroxy-5-methoxybenzoyl)-2-oxopyridin-1(2H)-yl}ethyl]carbamate (43)], half-maximal inhibition (IC50) required 21.9 µM. On to `CCCCCCn1cc(C(=O)c2ccc(O)cc2O)ccc1=O` [5-(2,4-Dihydroxybenzoyl)-1-hexylpyridin-2(1H)-one (32)], for which the IC50 is 27.7 µM. On the same count and under the same terms, the result for `COc1ccc(O)c(C(=O)c2ccc(=O)n(C3CCCCC3)c2)c1` [1-Cyclohexyl-5-(2-hydroxy-5-methoxybenzoyl)pyridin-2 (1H)-one (42)] reads 24.8 µM.

`CC(C)(C)OC(=O)NCCn1cc(C(=O)c2ccc(O)cc2O)ccc1=O` [t-Butyl [2-{5-(2,4-dihydroxybenzoyl)-2-oxopyridin-1(2H)-yl}ethyl]carbamate (33)]: inhibition was half-maximal at 57.8 µM (IC50). Take `CC(C)/N=C(\c1ccc(=O)n(C(C)C)c1)c1ccccc1O` [(E)-5-[(2-Hydroxyphenyl)(isopropylimino)methyl]-1-isopropylpyridin-2(1H)-one (44)]: inhibition was half-maximal at 37.9 µM (IC50).

For a further assay, the target named is T1, Epidermal growth factor receptor [1-973] (Homo sapiens, UniProt P00533).
T1 construct: 1-973
T1 sequence (P00533 1-973): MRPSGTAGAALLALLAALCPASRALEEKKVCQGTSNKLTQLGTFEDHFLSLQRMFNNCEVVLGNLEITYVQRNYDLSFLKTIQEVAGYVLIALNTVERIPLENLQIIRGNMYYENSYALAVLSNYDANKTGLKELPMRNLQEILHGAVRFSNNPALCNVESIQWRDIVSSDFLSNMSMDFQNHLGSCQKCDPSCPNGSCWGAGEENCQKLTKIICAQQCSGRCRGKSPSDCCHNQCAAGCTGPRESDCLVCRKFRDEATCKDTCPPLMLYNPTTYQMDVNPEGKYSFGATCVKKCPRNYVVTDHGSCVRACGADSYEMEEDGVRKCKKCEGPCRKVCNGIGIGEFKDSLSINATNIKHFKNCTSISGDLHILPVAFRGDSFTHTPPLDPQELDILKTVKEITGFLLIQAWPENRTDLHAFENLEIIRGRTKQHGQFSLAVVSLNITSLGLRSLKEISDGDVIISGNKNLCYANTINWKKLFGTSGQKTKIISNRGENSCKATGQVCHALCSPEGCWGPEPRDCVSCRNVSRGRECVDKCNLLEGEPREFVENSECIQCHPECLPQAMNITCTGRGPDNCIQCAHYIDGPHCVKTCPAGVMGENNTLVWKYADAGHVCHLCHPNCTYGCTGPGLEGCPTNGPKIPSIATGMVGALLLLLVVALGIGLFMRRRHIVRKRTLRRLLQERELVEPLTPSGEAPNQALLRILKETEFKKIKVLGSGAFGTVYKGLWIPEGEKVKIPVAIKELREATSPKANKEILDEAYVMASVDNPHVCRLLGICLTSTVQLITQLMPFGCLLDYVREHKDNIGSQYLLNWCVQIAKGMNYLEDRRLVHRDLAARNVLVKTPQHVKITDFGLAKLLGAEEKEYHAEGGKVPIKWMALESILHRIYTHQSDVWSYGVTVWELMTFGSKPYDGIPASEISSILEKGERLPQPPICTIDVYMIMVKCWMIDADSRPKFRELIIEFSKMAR
Kind of assay: EGFR, MAPK and PDK Inhibitory Acitivity Assay. Particulars: pH 7. Here is the method:
(§1) EGFR was incubated with 8 mM MOPS (pH 7.0), 0.2 mM EDTA, 10 mM MnCl2, 0.1 mg/mL poly(Glu, Tyr) 4:1. MAPK1 was incubated with 25 mM Tris (pH 7.5), 0.02 mM EGTA, 250 µM substrate peptide (MAPK1-peptide), whereas PDK1 was incubated with 50 mM Tris (pH 7.5), 100 µM […] (PDKtide). The incubation was followed by the addition of 10 mM magnesium acetate and gamma-P33-ATP to each kinase. The kinase reactions were initiated with the addition of Mg:ATP mixture and stopped after 40 min of incubation with the addition of 3% phosphoric acid solution.
Compound `COc1ccc(C(=O)c2ccc(=O)n(CCN(C)C)c2)c(O)c1` [1-[2-(Dimethylamino)ethyl]-5-(2-hydroxy-4-methoxybenzoyl) pyridin-2(1H)-one (36)] came in with an IC50 of more than 300 µM.

For another assay, the target named is T2, 3-phosphoinositide-dependent protein kinase 1 (Homo sapiens, UniProt O15530).
T2 sequence (O15530 whole entry): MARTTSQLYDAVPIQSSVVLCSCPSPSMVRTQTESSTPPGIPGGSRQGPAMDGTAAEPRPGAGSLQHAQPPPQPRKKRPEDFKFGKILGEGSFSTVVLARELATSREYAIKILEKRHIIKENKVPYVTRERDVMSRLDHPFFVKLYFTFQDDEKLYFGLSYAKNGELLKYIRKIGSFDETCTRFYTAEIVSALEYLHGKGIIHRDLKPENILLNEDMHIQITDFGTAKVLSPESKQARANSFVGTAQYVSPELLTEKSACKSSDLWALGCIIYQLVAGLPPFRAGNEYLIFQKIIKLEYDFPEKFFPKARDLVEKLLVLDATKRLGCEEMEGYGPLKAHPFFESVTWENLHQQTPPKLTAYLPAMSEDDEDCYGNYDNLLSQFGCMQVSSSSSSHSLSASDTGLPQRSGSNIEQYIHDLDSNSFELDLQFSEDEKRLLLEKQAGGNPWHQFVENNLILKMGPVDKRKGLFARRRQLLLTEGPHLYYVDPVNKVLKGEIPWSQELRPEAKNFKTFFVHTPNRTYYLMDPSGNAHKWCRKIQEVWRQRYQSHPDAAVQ
Description: EGFR, MAPK and PDK Inhibitory Acitivity Assay. Particulars: pH 7. Here is the method:
as §1
`COc1ccc(C(=O)c2ccc(=O)n(CCN(C)C)c2)c(O)c1` [1-[2-(Dimethylamino)ethyl]-5-(2-hydroxy-4-methoxybenzoyl) pyridin-2(1H)-one (36)] had an IC50 of more than 300 µM.

For another assay, the target named is Mitogen-activated protein kinase 1 (Homo sapiens, UniProt P28482). Description: EGFR, MAPK and PDK Inhibitory Acitivity Assay. Particulars: pH 7. The procedure:
as §1
Compound `COc1ccc(C(=O)c2ccc(=O)n(CCN(C)C)c2)c(O)c1` [1-[2-(Dimethylamino)ethyl]-5-(2-hydroxy-4-methoxybenzoyl) pyridin-2(1H)-one (36)] returned an IC50 of more than 300 µM.
